Data from patent US10925876B2, “Methods for using triazolo-pyrazinyl soluble guanylate cyclase activators in fibrotic disorders” (Merck Sharp & Dohme Corp., priority 2016, dated 2021).

Experiments:
[1] = molecular target: T1, sGC α1/β1 heterodimer (Homo sapiens, UniProt Q02108+Q02153); assay: Cell-Based sGC Functional Assay (CASA Assay), cGMP generation in CHO-K1/sGC cells;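 also: reference Compound A is a published heme-dependent sGC activator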; details: maximum cGMP production of Compound A set to 100% activation, read-out: % Act. (percent activation relative to Compound A)
T1 construct: expressed in transfected cells
T1 sequence (Q02108 1-690): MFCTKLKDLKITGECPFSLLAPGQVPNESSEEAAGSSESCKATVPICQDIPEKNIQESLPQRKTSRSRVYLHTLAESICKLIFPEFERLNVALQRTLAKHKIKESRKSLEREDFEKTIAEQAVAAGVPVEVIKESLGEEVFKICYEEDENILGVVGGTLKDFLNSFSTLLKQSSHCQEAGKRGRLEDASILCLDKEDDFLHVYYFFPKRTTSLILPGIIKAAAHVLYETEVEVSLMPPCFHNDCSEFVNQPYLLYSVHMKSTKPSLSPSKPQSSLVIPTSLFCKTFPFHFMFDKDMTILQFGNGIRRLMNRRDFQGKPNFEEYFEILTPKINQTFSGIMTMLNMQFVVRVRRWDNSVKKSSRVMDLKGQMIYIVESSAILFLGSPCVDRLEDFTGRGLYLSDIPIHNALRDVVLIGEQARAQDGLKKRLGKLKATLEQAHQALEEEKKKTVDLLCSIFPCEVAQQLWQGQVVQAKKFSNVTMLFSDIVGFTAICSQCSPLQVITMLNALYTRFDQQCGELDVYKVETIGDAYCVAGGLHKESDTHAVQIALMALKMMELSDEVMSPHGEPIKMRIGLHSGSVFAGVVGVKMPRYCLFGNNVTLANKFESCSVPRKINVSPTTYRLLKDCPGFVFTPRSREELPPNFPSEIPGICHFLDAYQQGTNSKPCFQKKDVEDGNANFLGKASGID
T1 sequence (Q02153 1-619): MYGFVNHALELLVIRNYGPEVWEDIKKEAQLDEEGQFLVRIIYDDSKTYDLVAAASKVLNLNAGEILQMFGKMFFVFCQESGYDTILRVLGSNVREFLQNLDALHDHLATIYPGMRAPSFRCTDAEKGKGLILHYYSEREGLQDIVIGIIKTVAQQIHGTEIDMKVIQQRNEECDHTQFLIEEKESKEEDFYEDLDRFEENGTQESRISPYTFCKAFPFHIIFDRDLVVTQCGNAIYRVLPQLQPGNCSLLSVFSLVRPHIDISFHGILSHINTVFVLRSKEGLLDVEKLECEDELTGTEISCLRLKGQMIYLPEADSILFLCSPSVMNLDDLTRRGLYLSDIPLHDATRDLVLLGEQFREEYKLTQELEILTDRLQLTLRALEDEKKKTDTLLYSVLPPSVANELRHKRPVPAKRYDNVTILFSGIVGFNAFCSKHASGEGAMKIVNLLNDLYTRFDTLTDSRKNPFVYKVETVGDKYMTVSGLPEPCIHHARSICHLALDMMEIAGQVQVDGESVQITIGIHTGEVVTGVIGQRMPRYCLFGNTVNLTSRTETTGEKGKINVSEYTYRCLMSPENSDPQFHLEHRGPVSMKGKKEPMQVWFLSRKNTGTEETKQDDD
Procedure, shortened: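 Intracellular cGMP quantified by HTRF competition after 1 h, 37 °C compound exposure, with or without 1 μM DETA-NO, in stable CHO-K1/sGC α1/β1 cells (4×10^5/mL; buffer with 0.5 mM IBMX, 5 mM MgCl2, 10 mM HEPES, 0.05% BSA; 2.5% DMSO). Activation normalized to reference Compound A maximum; 4P fit.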

[2] = tested on: Spontaneously hypertensive rats (SHR); assay: Acute Efficacy in Spontaneously Hypertensive Rats (SHR), telemetry blood pressure; format: in vivo, rat; details: single oral gavage
Procedure, shortened: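 Male SHR fitted with aortic telemetry transmitters and recovered 14 days; conscious blood pressure sampled 30 s every 10 min. Single oral gavage dose (vehicle 10% transcutol/20% Cremophor/70% water); hourly SBP change versus prior-day vehicle baseline, reported as maximum peak decrease.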

SMILES | Emax [1] | Maximum peak decrease of systolic blood pressure (SBP) in SHR, Cat. ([2]; P.O. 1 mpk) | Maximum peak decrease of systolic blood pressure (SBP) in SHR, Cat. ([2]; P.O. 0.3 mpk) | Maximum peak decrease of systolic blood pressure (SBP) in SHR, Cat. ([2]; P.O. 3 mpk)
CC1(c2ccccc2)C(=O)Nc2nc(-c3cn4ncnc4c(CCCC(F)(F)F)n3)nc(O)c21 (centres unmarked) [Example 143B, 4-hydroxy-5-methyl-5-phenyl-2-(8-(4,4,4-trifluorobutyl)-[1,2,4]triazolo[1,5-a]pyrazin-6-yl)-5H-pyrrolo[2,3-d]pyrimidin-6(7H)-one] | 114% | B (Category B=SBP in SHRs 20-40 mmHg) | – | –
CCCCc1nc(-c2nc(O)c3c(n2)NC(=O)C3(C)c2ccc(F)c(F)c2)cn2ncnc12 (centres unmarked) [Example 158B, 2-(8-butyl-[1,2,4]triazolo[1,5-a]pyrazin-6-yl)-5-(3,4-difluorophenyl)-4-hydroxy-5-methyl-5H-pyrrolo[2,3-d]pyrimidin-6(7H)-one] | 232% | – | C (Category C=SBP in SHRs >40 mmHg) | –
C[C@@]1(c2ccc(F)cc2)C(=O)Nc2nc(-c3cn4ncnc4c(CCCC(F)(F)F)n3)nc(O)c21 [Example 135A, 5-(4-fluorophenyl)-4-hydroxy-5-methyl-2-(8-(4,4,4-trifluorobutyl)-[1,2,4]triazolo[1,5-a]pyrazin-6-yl)-5,7-dihydro-6H-pyrrolo[2,3-d]pyrimidin-6-one] | 108% | B (Category B=SBP in SHRs 20-40 mmHg) | – | –
CCCCc1nc(-c2nc(O)c3c(n2)NC(=O)C3(C)c2ccc(F)cn2)cn2ncnc12 (centres unmarked) [Example 155B, 2-(8-butyl-[1,2,4]triazolo[1,5-a]pyrazin-6-yl)-5-(5-fluoropyridin-2-yl)-4-hydroxy-5-methyl-5H-pyrrolo[2,3-d]pyrimidin-6(7H)-one] | 159% | B (Category B=SBP in SHRs 20-40 mmHg) | – | –
CC1(c2ccc(C3CC3)nc2)C(=O)Nc2nc(-c3cn4ncnc4c(CCC(F)(F)C(F)(F)F)n3)nc(N)c21 (centres unmarked) [Example 13B, 4-amino-5-(6-cyclopropylpyridin-3-yl)-5-methyl-2-(8-(3,3,4,4,4-pentafluorobutyl)-[1,2,4]triazolo[1,5-a]pyrazin-6-yl)-5H-pyrrolo[2,3-d]pyrimidin-6(7H)-one] | 109% | B (Category B=SBP in SHRs 20-40 mmHg) | – | –
C[C@@]1(c2ccc(F)cc2)C(=O)Nc2nc(-c3cn4ncnc4c(Cc4ccc(F)cc4)n3)nc(N)c21 [Example 85B, (S)-4-amino-2-(8-(4-fluorobenzyl)-[1,2,4]triazolo[1,5-a]pyrazin-6-yl)-5-(4-fluorophenyl)-5-methyl-5H-pyrrolo[2,3-d]pyrimidin-6(7H)-one] | 106% | – | C (Category C=SBP in SHRs >40 mmHg) | –
CCCCc1nc(-c2nc(O)c3c(n2)NC(=O)C3(C)c2ccc(Cl)cn2)cn2ncnc12 (centres unmarked) [Example 160A, 2-(8-butyl-[1,2,4]triazolo[1,5-a]pyrazin-6-yl)-5-(5-chloropyridin-2-yl)-4-hydroxy-5-methyl-5H-pyrrolo[2,3-d]pyrimidin-6(7H)-one] | 96% | – | B (Category B=SBP in SHRs 20-40 mmHg) | –
CC1(c2ccc(Cl)cn2)C(=O)Nc2nc(-c3cn4ncnc4c(CCC(F)(F)F)n3)nc(N)c21 (centres unmarked) [Example 79A, 4-amino-5-(5-chloropyridin-2-yl)-5-methyl-2-(8-(3,3,3-trifluoropropyl)-[1,2,4]triazolo[1,5-a]pyrazin-6-yl)-5H-pyrrolo[2,3-d]pyrimidin-6(7H)-one] | 152% | B (Category B=SBP in SHRs 20-40 mmHg) | – | –
CC1(c2cncc(F)c2)C(=O)Nc2nc(-c3cn4ncnc4c(CCC(F)(F)C(F)(F)F)n3)nc(O)c21 (centres unmarked) [Example 125A, 5-(5-fluoropyridin-3-yl)-4-hydroxy-5-methyl-2-(8-(3,3,4,4,4-pentafluorobutyl)-[1,2,4]triazolo[1,5-a]pyrazin-6-yl)-5H-pyrrolo[2,3-d]pyrimidin-6(7H)-one] | 87% | – | – | A (Category A=SBP in SHRs <20 mmHg)
CC1(c2ccccn2)C(=O)Nc2nc(-c3cn4ncnc4c(CCC(F)(F)C(F)(F)F)n3)nc(N)c21 (centres unmarked) [Example 11B, 4-amino-5-methyl-2-(8-(3,3,4,4,4-pentafluorobutyl)-[1,2,4]triazolo[1,5-a]pyrazin-6-yl)-5-(pyridin-2-yl)-5H-pyrrolo[2,3-d]pyrimidin-6(7H)-one] | 208% | – | B (Category B=SBP in SHRs 20-40 mmHg) | –
CC(C)Cc1nc(-c2nc(N)c3c(n2)NC(=O)[C@@]3(C)c2ccc(F)cc2)cn2ncnc12 [Example 73A, (S)-4-amino-5-(4-fluorophenyl)-2-(8-isobutyl-[1,2,4]triazolo[1,5-a]pyrazin-6-yl)-5-methyl-5,7-dihydro-6H-pyrrolo[2,3-d]pyrimidin-6-one] | 101% | B (Category B=SBP in SHRs 20-40 mmHg) | – | –
CC1(c2ccc(Cl)c(F)c2)C(=O)Nc2nc(-c3cn4ncnc4c(CCC(F)(F)C(F)(F)F)n3)nc(O)c21 (centres unmarked) [Example 121B, 5-(4-chloro-3-fluorophenyl)-4-hydroxy-5-methyl-2-(8-(3,3,4,4,4-pentafluorobutyl)-[1,2,4]triazolo[1,5-a]pyrazin-6-yl)-5H-pyrrolo[2,3-d]pyrimidin-6(7H)-one] | 222% | B (Category B=SBP in SHRs 20-40 mmHg) | – | –
O=C1Nc2nc(-c3cn4ncnc4c(CCCC(F)(F)F)n3)nc(O)c2C1(c1ccc(F)c(F)c1)C1CC1 (centres unmarked) [Example 141A, 5-cyclopropyl-5-(3,4-difluorophenyl)-4-hydroxy-2-(8-(4,4,4-trifluorobutyl)-[1,2,4]triazolo[1,5-a]pyrazin-6-yl)-5H-pyrrolo[2,3-d]pyrimidin-6(7H)-one] | 133% | B (Category B=SBP in SHRs 20-40 mmHg) | – | –
Nc1nc(-c2cn3ncnc3c(CCCC(F)(F)F)n2)nc2c1C(c1ccc(F)cn1)(C1CC1)C(=O)N2 (centres unmarked) [Example 34A, 4-amino-5-cyclopropyl-5-(5-fluoropyridin-2-yl)-2-(8-(4,4,4-trifluorobutyl)-[1,2,4]triazolo[1,5-a]pyrazin-6-yl)-5H-pyrrolo[2,3-d]pyrimidin-6(7H)-one] | 235% | – | C (Category C=SBP in SHRs >40 mmHg) | –
CC1(c2ccc(C(F)(F)F)cn2)C(=O)Nc2nc(-c3cn4ncnc4c(CCCC(F)(F)F)n3)nc(C(N)=O)c21 (centres unmarked) [Example 179B, 5-methyl-6-oxo-2-(8-(4,4,4-trifluorobutyl)-[1,2,4]triazolo[1,5-a]pyrazin-6-yl)-5-(5-(trifluoromethyl)pyridin-2-yl)-6,7-dihydro-5H-pyrrolo[2,3-d]pyrimidine-4-carboxamide] | 101% | – | B (Category B=SBP in SHRs 20-40 mmHg) | –
C[C@@]1(c2ccc(F)cc2)C(=O)Nc2nc(-c3cn4ncnc4c(CCC(F)(F)F)n3)nc(O)c21 [Example 151A, (S)-5-(4-fluroophenyl)-4-hydroxy-5-methyl-2-(8-(3,3,3-trifluoropropyl)-[1,2,4]triazolo[1,5-a]pyrazin-6-yl)-5,7-dihydro-6H-pyrrolo[2,3-d]pyrimidin-6-one] | 120% | – | – | B (Category B=SBP in SHRs 20-40 mmHg)
